US10570129B2 (Zoetis Services LLC, priority 2015, dated 2020)

Experiments:
[1] = system: Haemonchus contortus L3; assay: microbe, parasite or virus in culture; type: cell-based; conditions: for minimal effective concentration: Haemonchus contortus, 96 h, read-out: HcL3 Minimal Effective Concentration (MEC)
[2] = system: D. immitis microfilariae; assay: Dirofilaria immitis, microfilariae (DiMF) in vitro motility assay; type: cell-based; conditions: for minimal effective concentration: Dirofilaria immitis, 72 h, read-out: DiMF minimally effective dose (MEC)

| Molecule | minimal effective concentration [1] [µM] | minimal effective concentration [2] [µM] | HcL3 Minimal Effective Concentration (MEC) [1] [µM] | DiMF minimally effective dose (MEC) ([2]; decrease in microfilariae motility by subjective visual assessment, observed at 72 hours) [µM] |
| --- | --- | --- | --- | --- |
| O=C(NCc1ccnc(Cl)c1)n1c2c(c3cc(Cl)ccc31)CN(C/C=C/c1ccc(F)cc1Cl)CC2 [Example 237, (E)-8-chloro-2-(3-(2-chloro-4-fluorophenyl)allyl)-N-((2-chloropyridin-4-yl)methyl)-1,2,3,4-tetrahydro-5H-pyrido[4,3-b]indole-5-carboxamide] | 0.03 | 1.8 | – | – |
| O=C(NCc1ccnc(Cl)c1)n1c2c(c3c(Cl)cccc31)CN(C/C=C/c1ccc(F)cc1)CC2 [Example 218, (E)-9-chloro-N-((2-chloropyridin-4-yl)methyl)-2-(3-(4-fluorophenyl)allyl)-1,2,3,4-tetrahydro-5H-pyrido[4,3-b]indole-5-carboxamide] | 1 | 10 | – | – |
| Cc1ccc2c3c(n(C(=O)NCc4ccnc(Cl)c4)c2c1)CCN(C/C=C/c1ccc(Cl)c(Cl)c1)C3 [Example 145, (E)-N-((2-chloropyridin-4-yl)methyl)-2-(3-(3,4-dichlorophenyl)allyl)-7-methyl-1,2,3,4-tetrahydro-5H-pyrido[4,3-b]indole-5-carboxamide] | 1 | 33 | – | – |
| N#Cc1ccc(/C=C/CN2CCc3c(c4ccc(OC(F)(F)F)cc4n3C(=O)NCc3ccnc(Cl)c3)C2)cc1F [Example 345, (E)-N-((2-chloropyridin-4-yl)methyl)-2-(3-(4-cyano-3-fluorophenyl)allyl)-7-(trifluoromethoxy)-1,2,3,4-tetrahydro-5H-pyrido[4,3-b]indole-5-carboxamide] | 0.5 | 18.2 | – | – |
| COc1cc(CNC(=O)n2c3c(c4cc(C#N)ccc42)CN(C/C=C/c2ccc(Cl)c(Cl)c2)CC3)ccn1 [Example 69, (E)-8-cyano-2-(3-(3,4-dichlorophenyl)allyl)-N-((2-methoxypyridin-4-yl)methyl)-1,2,3,4-tetrahydro-5H-pyrido[4,3-b]indole-5-carboxamide] | 0.02 | 0.03 | – | – |
| NC(=O)c1ccc2c3c(n(C(=O)NCc4ccnc(Cl)c4)c2c1)CCN(C/C=C/c1ccc(F)cc1)C3 [Example 466, (E)-N^5-((2-chloropyridin-4-yl)methyl)-2-(3-(4-fluorophenyl)allyl)-1,2,3,4-tetrahydro-5H-pyrido[4,3-b]indole-5,7-dicarboxamide] | > 100 | 3.3 | – | – |
| O=C(NCc1ccnc(Cl)c1)n1c2c(c3c(C(F)(F)F)cccc31)CN(C/C=C/c1ccc(F)cc1)CC2 [Example 161, (E)-N-((2-chloropyridin-4-yl)methyl)-2-(3-(4-fluorophenyl)allyl)-9-(trifluoromethyl)-1,2,3,4-tetrahydro-5H-pyrido[4,3-b]indole-5-carboxamide] | 2.1 | 10 | – | – |
| O=C(NCc1ccnc(Cl)c1)n1c2c(c3cc(Br)ccc31)CN(C/C=C/c1ccc(F)c(F)c1)CC2 [Example 183, (E)-8-bromo-N-((2-chloropyridin-4-yl)methyl)-2-(3-(3,4-difluorophenyl)allyl)-1,2,3,4-tetrahydro-5H-pyrido[4,3-b]indole-5-carboxamide] | 0.5 | 18.2 | – | – |
| O=C(NCc1ccnc(Cl)c1)n1c2c(c3ccc(N4CCOCC4)cc31)CN(C/C=C/c1ccc(Cl)c(Cl)c1)CC2 [Example 508, (E)-N-((2-chloropyridin-4-yl)methyl)-2-(3-(3,4-dichlorophenyl)allyl)-7-morpholino-1,2,3,4-tetrahydro-5H-pyrido[4,3-b]indole-5-carboxamide] | 1.6 | 9 | – | – |
| O=C(NCc1ccnc(Cl)c1)n1c2c(c3ccc(OC(F)(F)F)cc31)CN(C/C=C/c1ccc(Cl)cc1Cl)CC2 [Example 337, (E)-N-((2-chloropyridin-4-yl)methyl)-2-(3-(2,4-dichlorophenyl)allyl)-7-(trifluoromethoxy)-1,2,3,4-tetrahydro-5H-pyrido[4,3-b]indole-5-carboxamide] | 1 | 18.2 | – | – |
| N#Cc1ccc(/C=C/CN2CCc3c(c4cc(Cl)c(Cl)cc4n3C(=O)NCc3ccnc(Cl)c3)C2)cc1 [Example 279, (E)-7,8-dichloro-N-((2-chloropyridin-4-yl)methyl)-2-(3-(4-cyanophenyl)allyl)-1,2,3,4-tetrahydro-5H-pyrido[4,3-b]indole-5-carboxamide] | 1.8 | > 100 | – | – |
| O=C(NCc1ccnc(F)c1)n1c2c(c3ccc(OC(F)(F)F)cc31)CN(C/C=C/c1cc(F)cc(Cl)c1)CC2 [Example 380, (E)-2-(3-(3-chloro-5-fluorophenyl)allyl)-N-((2-fluoropyridin-4-yl)methyl)-7-(trifluoromethoxy)-1,2,3,4-tetrahydro-5H-pyrido[4,3-b]indole-5-carboxamide] | > 100 | 33 | – | – |
| N#Cc1ccc2c3c(n(C(=O)NCc4ccnc(Cl)c4)c2c1)CCN(C/C=C/c1ccc(Br)cc1F)C3 [Example 5, (E)-2-(3-(4-bromo-2-fluorophenyl)allyl)-N-((2-chloropyridin-4-yl)methyl)-7-cyano-1,2,3,4-tetrahydro-5H-pyrido[4,3-b]indole-5-carboxamide] | 1 | 5.7 | – | – |
| O=C(NCc1ccnc(F)c1)n1c2c(c3cc(Cl)ccc31)CN(C/C=C/c1ccc(F)cc1Cl)CC2 [Example 256, (E)-8-chloro-2-(3-(2-chloro-4-fluorophenyl)allyl)-N-((2-fluoropyridin-4-yl)methyl)-1,2,3,4-tetrahydro-5H-pyrido[4,3-b]indole-5-carboxamide] | 0.2 | 10 | – | – |
| O=C(NCc1ccnc(Cl)c1)n1c2c(c3cc(Br)c(OC(F)(F)F)cc31)CN(C/C=C/c1ccc(Cl)cc1)CC2 [Example 492, (E)-8-bromo-2-(3-(4-chlorophenyl)allyl)-N-((2-chloropyridin-4-yl)methyl)-7-(trifluoromethoxy)-1,2,3,4-tetrahydro-5H-pyrido[4,3-b]indole-5-carboxamide] | 1.8 | 0.5 | – | – |
| O=C(NCc1ccnc(F)c1)n1c2c(c3cc(C(F)(F)F)ccc31)CN(C/C=C/c1ccc(Cl)c(Cl)c1)CC2 [Example 422, (E)-2-(3-(3,4-dichlorophenyl)allyl)-N-((2-fluoropyridin-4-yl)methyl)-8-(trifluoromethyl)-1,2,3,4-tetrahydro-5H-pyrido[4,3-b]indole-5-carboxamide] | 10 | 18.2 | – | – |
| O=C(NCc1ccnc(F)c1)n1c2c(c3ccc(OC(F)(F)F)cc31)CN(C/C=C/c1ccc(Cl)c(F)c1)CC2 [Example 369, (E)-2-(3-(4-chloro-3-fluorophenyl)allyl)-N-((2-fluoropyridin-4-yl)methyl)-7-(trifluoromethoxy)-1,2,3,4-tetrahydro-5H-pyrido[4,3-b]indole-5-carboxamide] | 1 | 10 | – | – |
| N#Cc1ccc(/C=C/CN2CCc3c(c4cc(C#N)ccc4n3C(=O)NCc3ccnc(F)c3)C2)cc1 [Example 120, (E)-8-cyano-2-(3-(4-cyanophenyl)allyl)-N-((2-fluoropyridin-4-yl)methyl)-1,2,3,4-tetrahydro-5H-pyrido[4,3-b]indole-5-carboxamide] | 0.5 | > 100 | – | – |
| (E)-9-chloro-2-(3-(4-chlorophenyl)allyl)-N-((2-chloropyridin-4-yl)methyl)-8-fluoro-1,2,3,4-tetrahydro-5H-pyrido[4,3-b]indole-5-carboxamide [Example 318] | – | – | 3.3 | 5.7 |
| O=C(NCc1ccnc(Cl)c1)n1c2c(c3cc(N4CCCSC4)ccc31)CN(C/C=C/c1ccc(Cl)c(Cl)c1)CC2 [Example 511, (E)-N-((2-chloropyridin-4-yl)methyl)-2-(3-(3,4-dichlorophenyl)allyl)-8-(1,3-thiazinan-3-yl)-1,2,3,4-tetrahydro-5H-pyrido[4,3-b]indole-5-carboxamide] | > 100 | > 100 | – | – |
| N#Cc1ccc2c3c(n(C(=O)NCc4ccnc(F)c4)c2c1)CCN(C/C=C/c1ccc(Cl)cc1F)C3 [Example 52, (E)-2-(3-(4-chloro-2-fluorophenyl)allyl)-7-cyano-N-((2-fluoropyridin-4-yl)methyl)-1,2,3,4-tetrahydro-5H-pyrido[4,3-b]indole-5-carboxamide] | 5.7 | 10 | – | – |
| O=C(NCc1ccnc(F)c1)n1c2c(c3cc(F)c(Cl)cc31)CN(C/C=C/c1cc(F)cc(F)c1)CC2 [Example 316, (E)-7-chloro-2-(3-(3,5-difluorophenyl)allyl)-8-fluoro-N-((2-fluoropyridin-4-yl)methyl)-1,2,3,4-tetrahydro-5H-pyrido[4,3-b]indole-5-carboxamide] | > 100 | 5.7 | – | – |
| N#Cc1cc2c3c(n(C(=O)NCc4ccnc(Cl)c4)c2cc1Cl)CCN(C/C=C/c1ccc(Cl)cc1)C3 [Example 177, (E)-7-chloro-2-(3-(4-chlorophenyl)allyl)-N-((2-chloropyridin-4-yl)methyl)-8-cyano-1,2,3,4-tetrahydro-5H-pyrido[4,3-b]indole-5-carboxamide] | 0.3 | 5.7 | – | – |
| O=C(NCc1ccnc(Cl)c1)n1c2c(c3ccc(OC(F)(F)F)cc31)CN(C/C=C/c1ccc(F)c(Cl)c1)CC2 [Example 348, (E)-2-(3-(3-chloro-4-fluorophenyl)allyl)-N-((2-chloropyridin-4-yl)methyl)-7-(trifluoromethoxy)-1,2,3,4-tetrahydro-5H-pyrido[4,3-b]indole-5-carboxamide] | 1 | 24.5 | – | – |
| N#Cc1ccc2c(c1)c1c(n2C(=O)NCc2ccnc(F)c2)CCN(C/C=C/c2ccc(Cl)cc2)C1 [Example 121, (E)-2-(3-(4-chlorophenyl)allyl)-8-cyano-N-((2-fluoropyridin-4-yl)methyl)-1,2,3,4-tetrahydro-5H-pyrido[4,3-b]indole-5-carboxamide] | 0.3 | 10 | – | – |
